Active and inactive are the calls of the source. The calls are words filed in the database; no cut-off is given here.
How the values were obtained:
[1] = tested on: Human immunodeficiency virus 1; assay: Antiviral activity against HIV1 in human MT4 cells assessed as inhibition of virus-induced cytopathogenicity by MTT assay; assay type: functional, organism-based; settings: Human immunodeficiency virus 1, MT4
[2] = Cytotoxicity against mock-infected human MT4 cells by MTT assay; assay type: cell-based
[3] = Selectivity index, ratio of CC50 for human MT4 cells to EC50 for HIV1; assay type: toxicity, cell-based; settings: read-out: Ratio CC50/EC50
[4] = tested on: Human immunodeficiency virus 1; assay: Antiviral activity against HIV1 with reverse transcriptase Y181C mutation in human MT4 cells assessed as inhibition of virus-induced cytopathogenicity by MTT assay; assay type: functional, organism-based; settings: Human immunodeficiency virus 1, MT4
[5] = tested on: Human immunodeficiency virus 1; assay: Antiviral activity against HIV1 with reverse transcriptase K103N/Y181C mutation in human MT4 cells assessed as inhibition of virus-induced cytopathogenicity by MTT assay; assay type: functional, organism-based; settings: for EC50: Human immunodeficiency virus 1, MT4
[6] = biological target: Human immunodeficiency virus type 1 reverse transcriptase (Human immunodeficiency virus 1, UniProt Q72547); assay: Inhibition of HIV1 recombinant wild type reverse transcriptase
[7] = tested on: Human immunodeficiency virus 1; assay: Reduction of HIV1 p24 antigen level in virus infected C8166 cells; assay type: functional; settings: Human immunodeficiency virus 1, C8166

Structure (SMILES) | EC50 [1] | CC50 [2] | selectivity ratio [3] | EC50 [4] | EC50 [5] | IC50 [6] | EC90 [7] | Activity [5]
S=C(Nc1ccccc1)OCC1(c2ccccc2)CC1 | 7 µM | 51 µM | 7.3 |  |  |  |  | 
O=[N+]([O-])c1ccc(NC(=S)OCCc2cccc(Cl)c2)cc1 | 1.5 µM | > 100 µM | > 67 |  |  |  |  | 
S=C(Nc1ccccc1)OCCCc1ccccc1 | 67 µM | > 100 µM | > 1.5 |  |  |  |  | 
CC(Cc1ccccc1)OC(=S)Nc1ccccc1 (racemic) | 9 µM | > 100 µM | > 11 |  |  |  |  | 
COc1ccccc1CCOC(=S)Nc1ccc([N+](=O)[O-])cc1 | 0.1 µM | > 100 µM | > 1000 |  |  |  |  | 
CC(COC(=S)Nc1ccc(Cl)c(Cl)c1)c1ccccc1 (racemic) | 0.3 µM | 44 µM | 147 |  |  |  |  | 
S=C(Nc1ccccc1)OCCc1ccccc1 |  | 100 µM |  |  |  |  |  | 
COc1cccc(CCOC(=S)Nc2ccc(Cl)cc2)c1 | 0.08 µM | 94 µM | 1180 | 12 µM | 86 µM |  |  | 
O=[N+]([O-])c1ccc(NC(=S)OCCc2ccccc2O)cc1 | 10 µM | 36 µM | 3.6 |  |  |  |  | 
S=C(Nc1ccccc1)OCc1cccs1 | > 38 µM | 38 µM | < 1 |  |  |  |  | 
Cc1ccc(NC(=S)OC(C)COc2ccccc2)cc1 (racemic) | 1.2 µM | 24 µM | 20 |  |  | 1.4 µM |  | 
CC(COc1ccccc1)OC(=S)Nc1ccc(F)cc1 (racemic) | 11 µM | > 100 µM | > 9 |  |  |  |  | 
S=C(Nc1ccc(Cl)cc1)OCCOc1ccccc1 | 2.9 µM | 34 µM | 12 |  |  |  |  | 
S=C(Nc1ccccc1)OCC1COc2ccccc2O1 (stereo unspecified) | 52 µM | > 100 µM | > 1.9 |  |  |  |  | 
COc1cccc(CCOC(=S)Nc2ccc(Cl)c([N+](=O)[O-])c2)c1 | 2 µM | 43 µM | 22 |  |  |  |  | 
COc1ccccc1CCOC(=S)Nc1ccc(Cl)c(Cl)c1 | 0.3 µM | > 45 µM | > 150 |  |  |  |  | 
CC(OC(=S)Nc1ccc(Cl)cc1)c1cccc2ccccc12 (racemic) | 82 µM | > 100 µM | > 1.2 |  |  |  |  | 
S=C(NCCc1ccccn1)Nc1ccc(Br)cn1 [TROVIRDINE] |  | 60 µM | 3000 |  |  |  | 0.015 µM | 
CCC(OC(=S)Nc1ccccc1)c1ccccc1 (racemic) | > 100 µM | > 100 µM |  |  |  |  |  | 
Cc1ccc(NC(=S)OCCc2ccccc2)cc1 |  | > 100 µM |  |  |  |  |  | 
S=C(Nc1ccccc1)OCCSc1ccccc1 | 38 µM | > 100 µM | > 2.6 |  |  |  |  | 

Structure (SMILES) | EC50 [1] | CC50 [2] | selectivity ratio [3] | EC50 [4] | EC50 [5] | IC50 [6] | EC90 [7] | Activity [5]
CC(COc1ccccc1)OC(=S)Nc1ccc([N+](=O)[O-])cc1 (racemic) | 2.6 µM | > 100 µM | > 38 |  |  |  |  | 
Cc1ccccc1CCOC(=S)Nc1ccc([N+](=O)[O-])cc1 | 0.7 µM | > 100 µM | > 143 |  |  |  |  | 
CC(OC(=S)Nc1ccc(Cl)cc1)c1ccc2ccccc2c1 (racemic) | 26 µM | > 100 µM | > 3.8 |  |  |  |  | 
S=C(Nc1ccccc1)OCc1cccc(Oc2ccccc2)c1 | > 100 µM | > 100 µM |  |  |  |  |  | 
S=C(Nc1ccccc1)OCc1c(Cl)cccc1Cl | > 100 µM | > 100 µM |  |  |  |  |  | 
O=[N+]([O-])c1ccc(NC(=S)OCCc2ccc(Br)cc2)cc1 | 7.9 µM | > 100 µM | > 13 |  |  |  |  | 
O=[N+]([O-])c1ccc(OCCOC(=S)Nc2ccc(Cl)cc2)cc1 | > 72 µM | 72 µM | < 1 |  |  |  |  | 
CC(OC(=S)Nc1ccccc1)c1ccc(Cl)cc1 (racemic) | 5.3 µM | > 100 µM | > 19 |  |  |  |  | 
Cc1ccc(NC(=S)OCCOc2ccccc2)cc1 | 10 µM | 74 µM | 7.4 |  |  |  |  | 
CC(COc1ccccc1)OC(=S)Nc1ccc(Cl)cc1 (racemic) | 1.6 µM | > 100 µM | > 63 |  |  |  |  | 
S=C(Nc1ccccc1)OCCOc1ccccc1 | 5.8 µM | > 100 µM | > 17 |  |  |  |  | 
CC(Cc1ccccc1)OC(=S)Nc1ccc([N+](=O)[O-])cc1 (racemic) | 1.3 µM | 39 µM | 30 |  |  |  |  | 
O=[N+]([O-])c1ccc(NC(=S)OCCc2ccccc2)cc1 |  | > 100 µM |  |  |  |  |  | 
O=[N+]([O-])c1ccc(NC(=S)OCCc2cccc(O)c2)cc1 | 3.7 µM | 24 µM | 6.5 |  |  |  |  | 
COc1ccc(NC(=S)OCCc2ccccc2)cc1 |  | 36 µM |  |  |  |  |  | 
S=C(Nc1ccc(Cl)cc1)OCCc1ccccc1 |  | > 100 µM |  |  |  |  |  | 
COc1ccc(NC(=S)OC(C)COc2ccccc2)cc1 (racemic) | > 100 µM | > 100 µM |  |  |  |  |  | 
CC(OC(=S)Nc1ccc(Cl)cc1)c1ccc(-c2ccccc2)cc1 (racemic) | 57 µM | > 100 µM | > 1.8 |  |  |  |  | 
S=C(Nc1ccccc1)OC1Cc2ccccc2C1 | 12 µM | > 100 µM | > 8.3 |  |  |  |  | 
O=[N+]([O-])c1ccc(NC(=S)OCCOc2ccccc2)cc1 | 8.5 µM | > 100 µM | > 12 |  |  |  |  | 
O=[N+]([O-])c1ccc(NC(=S)OCCc2ccc(O)cc2)cc1 | > 41 µM | 41 µM | < 1 |  |  |  |  | 

Structure (SMILES) | EC50 [1] | CC50 [2] | selectivity ratio [3] | EC50 [4] | EC50 [5] | IC50 [6] | EC90 [7] | Activity [5]
O=C1Nc2ccc(Cl)cc2C(C#CC2CC2)(C(F)(F)F)O1 (single isomer, unassigned) [EFAVIRENZ] |  |  |  |  | 0.04 µM |  |  | 
COc1ccc(NC(=S)OCCOc2ccccc2)cc1 | 17 µM | 48 µM | 2.8 |  |  |  |  | 
CC(OC(=S)Nc1ccc([N+](=O)[O-])cc1)c1ccc(Cl)cc1 (racemic) | 7 µM | > 100 µM | > 14 |  |  |  |  | 
COc1cccc(CCOC(=S)Nc2ccc(Cl)c(Cl)c2)c1 | 1 µM | 44 µM | 44 |  |  |  |  | 
COc1cccc(CCOC(=S)Nc2ccc([N+](=O)[O-])cc2)c1 | 0.2 µM | > 100 µM | > 500 | 8.3 µM |  |  |  | inactive
Oc1ccccc1OCCOC(=S)Nc1ccccc1 | 19 µM | > 100 µM | > 5.2 |  |  |  |  | 
COc1ccccc1CCOC(=S)Nc1ccc(Cl)cc1 | 0.07 µM | 43 µM | 614 | 8.9 µM |  |  |  | inactive
CC(COc1ccccc1)OC(=S)Nc1ccccc1 (racemic) | 2 µM | > 100 µM | > 50 |  |  | 1 µM |  | 
Cc1ccc(NC(=S)OC(C)COc2ccccc2)cc1Cl (racemic) | 4 µM | > 100 µM | > 25 |  |  |  |  | 
Cc1cccc(CCOC(=S)Nc2ccc([N+](=O)[O-])cc2)c1 | 0.5 µM | 96 µM | 192 | 8.9 µM | 69 µM |  |  | 
Cc1ccc(CCOC(=S)Nc2ccc([N+](=O)[O-])cc2)cc1 | 0.3 µM | > 100 µM | > 333 | 8.6 µM | 92 µM |  |  | 
CC(COC(=S)Nc1ccc([N+](=O)[O-])cc1)c1ccccc1 (racemic) | 0.6 µM | > 100 µM | > 167 |  |  |  | 0.6 µM | 
CC(COC(=S)Nc1ccc(Cl)c([N+](=O)[O-])c1)c1ccccc1 (racemic) | 0.5 µM | 41 µM | 82 |  |  |  |  | 
COc1ccccc1CCOC(=S)Nc1ccc(Cl)c([N+](=O)[O-])c1 | 0.9 µM | 44 µM | 49 |  |  |  |  | 
O=[N+]([O-])c1ccc(NC(=S)OCCc2ccc(Cl)cc2)cc1 | 13 µM | > 100 µM | > 7.7 |  |  |  |  | 
CC(COC(=S)Nc1ccc(Cl)cc1)c1ccccc1 (racemic) | 0.2 µM | 30 µM | 150 | 12 µM |  |  |  | inactive
COc1ccc(CCOC(=S)Nc2ccc([N+](=O)[O-])cc2)cc1 | 1.4 µM | > 100 µM | > 71 |  |  |  |  | 
O=[N+]([O-])c1ccc(NC(=S)OCCOc2ccc(Br)cc2)cc1 | > 100 µM | > 100 µM |  |  |  |  |  | 
O=[N+]([O-])c1ccc(NC(=S)OCCc2ccccc2Cl)cc1 | 0.4 µM | > 100 µM | > 250 |  |  |  |  | 
S=C(Nc1ccccc1)OCC(c1ccccc1)c1ccccc1 | > 100 µM | > 100 µM |  |  |  |  |  | 
S=C(Nc1ccccc1)OC/C=C/c1ccccc1 | 67 µM | > 100 µM | > 1.5 |  |  |  |  | 

From ChEMBL document CHEMBL1156536, “Thiocarbamates as non-nucleoside HIV-1 reverse transcriptase inhibitors. Part 2: Parallel synthesis, molecular modelling and structure-activity relationship studies on analogues of O-(2-phenylethyl)-N-phenylthiocarbamate” (Bioorg Med Chem, 2008)
